For assay [1], the system named is FolA (dihydrofolate reductase, DHFR). The experiment in a line: ALIS binding to FolA. The arrangement: species or system E. coli.
The test system of assay [2] is E. coli. The experiment in a line: Historical phenotypic screen for inhibitors of E. coli growth. It counts as cell-based. The settings on record: active = ≥80% inhibition of bacterial growth.
In assay [3] the target is FolA (dihydrofolate reductase, DHFR). Particulars: cited from earlier work.
Assay [4] relates to M. tuberculosis ATCC 27294. The experiment in a line: M. tuberculosis growth inhibition assay. The assay is classed as cell-based.
In assay [5] the test system is mouse dihydrofolate reductase. The settings on record: cited from earlier work.
The test system of assay [6] is Mycobacterium tuberculosis (Mtb). It counts as cell-based. The settings on record: active = ≥80% inhibition of bacterial growth.

Here are results for five compounds from publication PMC6298432 (ACS chemical biology, 2017).

The structures appear in SMILES notation.

`COc1ccc(Cc2cnc(N)nc2N)cc1OC` [Diaveridine]: the “Binding to FolA detected in ALIS” value in assay [1] is given as “binders detected”. In addition, the “Activity in E. coli growth phenotypic screen” value in assay [2] is on record as “active”. The “IC50 for FolA” value in assay [3] is recorded as “nanomolar”.
Turning to `CN(Cc1cnc2nc(N)nc(N)c2n1)c1ccc(C(=O)N[C@@H](CCC(=O)O)C(=O)O)cc1` [Methotrexate], the “Inhibition of Mtb growth (antibacterial activity)” value in assay [4] is listed as “no efficacy”.
`COc1cc(Cc2cnc(N)nc2N)cc(OC)c1Br` [brodimoprim]: the “Binding to FolA detected in ALIS” value in assay [1] is recorded as “failure to detect their binding”.
`C#CCN(Cc1cnc2nc(N)nc(N)c2n1)c1ccc(C(=O)N[C@@H](CCC(=O)O)C(=O)O)cc1` [10-PAP, 10-propargylaminopterin]: the “Inhibition of mouse dihydrofolate reductase” value in assay [5] is “inhibit”. Further, the “Inhibition of Mtb growth (antibacterial activity)” value in assay [4] is reported as “retained bioactivity”. Further, the “Activity in Mtb growth phenotypic screen” value in assay [6] is given as “active”.
Take `COc1cc(Cc2cnc(N)nc2N)cc(OC)c1OC` [Trimethoprim]: in assay [2], the “Activity in E. coli growth phenotypic screen” value is “active”.
